This assay concerns the target Cystic fibrosis transmembrane conductance regulator (Homo sapiens, UniProt P13569, F508DEL). Nature of the assay: Modulation of CFTR F508 deletion mutant expressed in HBE cells assessed as change in short circuit current incubated for 18 to 24 hrs in presence of forskolin, amiloride and human serum by voltage-clamp based chamber assay. It counts as cell-based.

Bounds are passed on as bounds.

Sequence of Cystic fibrosis transmembrane conductance regulator (P13569 as listed by the source): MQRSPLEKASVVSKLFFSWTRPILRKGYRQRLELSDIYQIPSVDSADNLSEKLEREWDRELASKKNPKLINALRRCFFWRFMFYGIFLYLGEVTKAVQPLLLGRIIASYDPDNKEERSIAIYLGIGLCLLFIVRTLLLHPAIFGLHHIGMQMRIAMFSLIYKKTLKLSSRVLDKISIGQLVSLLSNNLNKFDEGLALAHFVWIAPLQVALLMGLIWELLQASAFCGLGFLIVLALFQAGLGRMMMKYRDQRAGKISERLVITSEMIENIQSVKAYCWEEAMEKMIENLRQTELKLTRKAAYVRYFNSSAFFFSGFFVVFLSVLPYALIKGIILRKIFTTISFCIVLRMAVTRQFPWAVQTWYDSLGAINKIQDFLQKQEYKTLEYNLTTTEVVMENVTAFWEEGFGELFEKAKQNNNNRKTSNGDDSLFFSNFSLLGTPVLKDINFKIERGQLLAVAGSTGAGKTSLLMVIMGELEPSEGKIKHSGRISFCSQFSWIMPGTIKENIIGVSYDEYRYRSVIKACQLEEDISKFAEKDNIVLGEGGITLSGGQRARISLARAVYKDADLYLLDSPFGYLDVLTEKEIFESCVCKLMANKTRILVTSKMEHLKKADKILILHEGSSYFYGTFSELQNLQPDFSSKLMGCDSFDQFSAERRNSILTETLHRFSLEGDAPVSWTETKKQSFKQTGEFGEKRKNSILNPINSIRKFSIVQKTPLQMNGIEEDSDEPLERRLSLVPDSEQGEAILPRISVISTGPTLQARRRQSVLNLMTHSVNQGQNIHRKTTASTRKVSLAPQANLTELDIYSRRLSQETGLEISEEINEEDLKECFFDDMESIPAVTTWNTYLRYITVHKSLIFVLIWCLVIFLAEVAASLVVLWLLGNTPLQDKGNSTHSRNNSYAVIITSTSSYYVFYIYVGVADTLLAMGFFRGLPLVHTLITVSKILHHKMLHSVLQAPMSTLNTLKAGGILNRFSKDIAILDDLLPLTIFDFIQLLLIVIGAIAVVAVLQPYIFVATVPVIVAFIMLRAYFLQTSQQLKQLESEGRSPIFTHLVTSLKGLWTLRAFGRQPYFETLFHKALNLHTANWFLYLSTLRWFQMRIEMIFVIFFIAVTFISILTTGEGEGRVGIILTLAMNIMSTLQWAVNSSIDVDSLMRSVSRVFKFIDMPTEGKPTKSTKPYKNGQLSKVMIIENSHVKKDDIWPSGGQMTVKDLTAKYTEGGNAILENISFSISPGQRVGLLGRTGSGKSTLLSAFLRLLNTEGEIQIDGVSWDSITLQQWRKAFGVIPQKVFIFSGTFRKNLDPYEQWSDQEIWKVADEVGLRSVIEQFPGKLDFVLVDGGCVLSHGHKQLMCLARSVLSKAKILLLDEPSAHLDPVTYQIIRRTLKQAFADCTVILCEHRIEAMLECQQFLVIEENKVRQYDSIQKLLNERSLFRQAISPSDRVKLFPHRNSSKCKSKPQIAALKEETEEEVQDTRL

`[2H]C1CC[C@@H](C)Oc2nc(c(N)cc2C(F)(F)F)C2=NN=C(O2)[C@@](O)(C(F)(F)F)CC1[2H]` (stereo partly specified): the half-maximal effective concentration (EC50) (as a rule, the concentration at which the effect is half-maximal) is less than 0.5 µM.

On to `C[C@H]1CCCCC[C@](O)(C(F)(F)F)C2=NN=C(O2)c2nc(c(C(F)(F)F)cc2N)O1`, for which the EC50 is less than 0.5 µM.

For the compound `Nc1cc(C(F)(F)F)c2nc1-c1nnc(o1)C(O)(C(F)(F)F)CCCCCCO2` (stereo unspecified), the EC50 was less than 0.5 µM.

Regarding `Nc1cc(C(F)(F)F)c2nc1-c1nnc(o1)[C@@](O)(C(F)(F)F)CCCCCCS2`, the EC50 is less than 0.5 µM.

As for `Nc1cc(C(F)(F)F)c2nc1-c1nnc(o1)[C@@](O)(C(F)(F)F)CCCCC[C@H](CO)O2`, the EC50 was less than 0.5 µM.

For `CC1(C)CCCC[C@](O)(C(F)(F)F)C2=NN=C(O2)c2nc(c(C(F)(F)F)cc2N)OC1`, the EC50 was less than 0.5 µM.
